This passage reports inhibition results from patent publication US5530126A, “Process for the preparation of substituted 6-(pyrazol-3yl)-1,4-benzoxazin-3-ones” (Monsanto Company, priority 1994, dated 1996).

Structures are written as SMILES.

Format in all cases: in vivo
Assay [1] deals with Yellow nutsedge. Nature of the assay: Post-emergence herbicide test. Particulars: Cyperus, read-out: % plant inhibition (Yens); for inhibition at 11210 g/ha: 11.21 kg/ha; for inhibition at 1120 g/ha: 1.12 kg/ha. The gist of the method:
(§1)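 Scoring: percent inhibition relative to control, usually 11 days post-treatment, with a later look near 25 days in some instances. Plants had been grown in greenhouse pans for two to three weeks before atomizer spraying at 1870 L/Ha.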

Assay [2] has as its system Velvetleaf. Nature of the assay: Post-emergence herbicide test. Particulars: Abutilon theophrasti, read-out: % plant inhibition (Vele); for inhibition at 11210 g/ha: 11.21 kg/ha; for inhibition at 1120 g/ha: 1.12 kg/ha. The essentials: as §1
Assay [3] has as its system Seedling johnsongrass. Nature of the assay: Post-emergence herbicide test. To be noted: Sorghum halepense, read-out: % plant inhibition (Sejg); for inhibition at 11210 g/ha: 11.21 kg/ha; for inhibition at 1120 g/ha: 1.12 kg/ha. The essentials:
as §1

In assay [4] the test system is Wild buckwheat. Nature of the assay: Post-emergence herbicide test. To be noted: Fallopia convolvulus, read-out: % plant inhibition (Wibw); for inhibition at 11210 g/ha: 11.21 kg/ha; for inhibition at 1120 g/ha: 1.12 kg/ha. The essentials: as §1
For assay [5], the system named is Barnyardgrass. As to the kind of experiment: Post-emergence herbicide test. Particulars: Echinochloa crus-galli, read-out: % plant inhibition (Bygr); for inhibition at 11210 g/ha: 11.21 kg/ha; for inhibition at 1120 g/ha: 1.12 kg/ha. The gist of the method: as §1
The test system of assay [6] is Cocklebur. Nature of the assay: Post-emergence herbicide test. To be noted: Xanthium strumarium, read-out: % plant inhibition (Cobu); for inhibition at 11210 g/ha: 11.21 kg/ha; for inhibition at 1120 g/ha: 1.12 kg/ha. The gist of the method: as §1
In assay [7] the test system is Indian Mustard. As to the kind of experiment: Post-emergence herbicide test. Particulars: Brassica juncea, read-out: % plant inhibition (Inmu); for inhibition at 11210 g/ha: 11.21 kg/ha; for inhibition at 1120 g/ha: 1.12 kg/ha. The gist of the method: as §1
Assay [8] deals with Morningglory. As to the kind of experiment: Post-emergence herbicide test. Particulars: Ipomoea, read-out: % plant inhibition (Mogl); for inhibition at 11210 g/ha: 11.21 kg/ha; for inhibition at 1120 g/ha: 1.12 kg/ha. The essentials:
as §1

In assay [9] the test system is Downy Brome. Nature of the assay: Post-emergence herbicide test. To be noted: Bromus tectorum, read-out: % plant inhibition (Dobr); for inhibition at 11210 g/ha: 11.21 kg/ha; for inhibition at 1120 g/ha: 1.12 kg/ha. The gist of the method:
as §1

For assay [10], the system named is Annual bluegrass. As to the kind of experiment: Post-emergence herbicide test. Particulars: read-out: % plant inhibition (Anbg); for inhibition at 11210 g/ha: 11.21 kg/ha; for inhibition at 1120 g/ha: 1.12 kg/ha. The gist of the method:
as §1

Assay [11] concerns Yellow nutsedge. As to the kind of experiment: Pre-emergence herbicide test. To be noted: Cyperus, read-out: % plant inhibition (Yens); for inhibition at 11210 g/ha: 11.21 kg/ha; for inhibition at 1120 g/ha: 1.12 kg/ha. The essentials:
(§2)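 Sow seeds on compacted topsoil; apply compound in acetone/water to seed bed; cover with untreated topsoil; grow in greenhouse with bottom watering; score % inhibition at 10-14 days.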

In assay [12] the test system is Velvetleaf. As to the kind of experiment: Pre-emergence herbicide test. Particulars: Abutilon theophrasti, read-out: % plant inhibition (Vele); for inhibition at 11210 g/ha: 11.21 kg/ha; for inhibition at 1120 g/ha: 1.12 kg/ha. The essentials:
as §2

For assay [13], the system named is Seedling johnsongrass. As to the kind of experiment: Pre-emergence herbicide test. Particulars: Sorghum halepense, read-out: % plant inhibition (Sejg); for inhibition at 11210 g/ha: 11.21 kg/ha; for inhibition at 1120 g/ha: 1.12 kg/ha. The essentials: as §2
Assay [14] deals with Wild buckwheat. Nature of the assay: Pre-emergence herbicide test. Particulars: Fallopia convolvulus, read-out: % plant inhibition (Wibw); for inhibition at 11210 g/ha: 11.21 kg/ha; for inhibition at 1120 g/ha: 1.12 kg/ha. The gist of the method:
as §2

Assay [15] concerns Barnyardgrass. As to the kind of experiment: Pre-emergence herbicide test. To be noted: Echinochloa crus-galli, read-out: % plant inhibition (Bygr); for inhibition at 11210 g/ha: 11.21 kg/ha; for inhibition at 1120 g/ha: 1.12 kg/ha. The gist of the method: as §2
In assay [16] the test system is Cocklebur. As to the kind of experiment: Pre-emergence herbicide test. Particulars: Xanthium strumarium, read-out: % plant inhibition (Cobu); for inhibition at 11210 g/ha: 11.21 kg/ha; for inhibition at 1120 g/ha: 1.12 kg/ha. The essentials: as §2
Assay [17] has as its system Indian Mustard. Nature of the assay: Pre-emergence herbicide test. Particulars: Brassica juncea, read-out: % plant inhibition (Inmu); for inhibition at 11210 g/ha: 11.21 kg/ha; for inhibition at 1120 g/ha: 1.12 kg/ha. The gist of the method:
as §2

Assay [18] relates to Morningglory. As to the kind of experiment: Pre-emergence herbicide test. Particulars: Ipomoea, read-out: % plant inhibition (Mogl); for inhibition at 11210 g/ha: 11.21 kg/ha; for inhibition at 1120 g/ha: 1.12 kg/ha. The essentials: as §2
Assay [19] concerns Downy Brome. As to the kind of experiment: Pre-emergence herbicide test. To be noted: Bromus tectorum, read-out: % plant inhibition (Dobr); for inhibition at 11210 g/ha: 11.21 kg/ha; for inhibition at 1120 g/ha: 1.12 kg/ha. The essentials: as §2
Assay [20] concerns Annual bluegrass. As to the kind of experiment: Pre-emergence herbicide test. Particulars: read-out: % plant inhibition (Anbg); for inhibition at 11210 g/ha: 11.21 kg/ha; for inhibition at 1120 g/ha: 1.12 kg/ha. The gist of the method:
as §2

The term inhibition denotes the drop in the measured response relative to a control, in per cent.

`Cn1nc(-c2cc(NC(=O)C(F)(F)F)c(Cl)cc2Cl)c(Cl)c1C(F)(F)F` [Compound 88]: the inhibition at 11210 g/ha in the assay on Yellow nutsedge [1] amounted to 0%; in the assay on Velvetleaf [2], 100%; in the assay on Seedling johnsongrass [3] it was 70%; with Wild buckwheat [4], 100%; in the assay with Barnyardgrass [5], 50%; in the assay on Cocklebur [6], 100%. The inhibition at 11210 g/ha was found to be 60% in the assay with Indian Mustard [7]; 100% in the assay on Morningglory [8]; 10% in the assay on Downy Brome [9]; 10% in the assay with Annual bluegrass [10]; 10% in the assay on Yellow nutsedge [11]; 80% with Velvetleaf [12]. Also, the inhibition at 11210 g/ha amounted to 30% with Seedling johnsongrass [13]; 100% in the assay with Wild buckwheat [14]; 10% in the assay with Barnyardgrass [15]; 20% in the assay with Cocklebur [16]; 20% with Indian Mustard [17]; 10% in the assay on Morningglory [18]. The results for the inhibition at 11210 g/ha with Downy Brome [19] and in the assay with Annual bluegrass [20] were 10% and 20%, respectively.
In the case of `CCC(C)OC(=O)c1cc(-c2nn(C)c(C(F)(F)F)c2Cl)c(F)cc1Cl` (centres unmarked) [Compound 136], the inhibition at 1120 g/ha with Yellow nutsedge [1] was found to be 10%; in the assay on Velvetleaf [2], 100%; in the assay on Seedling johnsongrass [3], 100%; in the assay with Wild buckwheat [4], 100%; in the assay on Barnyardgrass [5], 100%; with Cocklebur [6], 100%. Moreover, the inhibition at 1120 g/ha was 100% with Indian Mustard [7]; 100% in the assay with Morningglory [8]; 100% with Downy Brome [9]; 100% in the assay with Annual bluegrass [10]; 0% with Yellow nutsedge [11]; 90% with Velvetleaf [12]. Further, the inhibition at 1120 g/ha with Seedling johnsongrass [13] stood at 90%; in the assay on Wild buckwheat [14], 100%; with Barnyardgrass [15], 70%; in the assay with Cocklebur [16], 80%; with Indian Mustard [17], 90%; in the assay with Morningglory [18], 80%. For the same compound, the inhibition at 1120 g/ha with Downy Brome [19] amounted to 100%; with Annual bluegrass [20], 90%.
For `Cn1nc(-c2cc([N+](=O)[O-])c(Cl)cc2Cl)c(Cl)c1C(F)(F)F` [Compound 86], the inhibition at 11210 g/ha with Yellow nutsedge [1] was 10%; with Velvetleaf [2] it was 100%; with Seedling johnsongrass [3], 80%; in the assay on Wild buckwheat [4], 100%; in the assay on Barnyardgrass [5] it was 80%; in the assay with Cocklebur [6], 70%. Besides, the inhibition at 11210 g/ha in the assay on Indian Mustard [7] was 60%; with Morningglory [8], 100%; with Downy Brome [9] it was 0%; in the assay with Annual bluegrass [10], 30%; in the assay on Yellow nutsedge [11], 0%; in the assay with Velvetleaf [12], 90%. The inhibition at 11210 g/ha was determined as 0% with Seedling johnsongrass [13]; 100% with Wild buckwheat [14]; 0% in the assay on Barnyardgrass [15]; 10% in the assay on Cocklebur [16]; 30% in the assay with Indian Mustard [17]; 20% in the assay with Morningglory [18]. The inhibition at 11210 g/ha in the assay with Downy Brome [19] and in the assay on Annual bluegrass [20] was 0% throughout.
Turning to `Cn1nc(-c2ccc(Cl)cc2)c(Cl)c1C(F)(F)F` [Compound 82], the inhibition at 11210 g/ha with Yellow nutsedge [1] is 10%; with Velvetleaf [2], 20%; with Seedling johnsongrass [3], 40%; with Wild buckwheat [4], 60%; in the assay on Barnyardgrass [5], 30%; with Cocklebur [6] it was 0%. In addition, the inhibition at 11210 g/ha with Indian Mustard [7] was 30%; in the assay on Morningglory [8], 90%; with Downy Brome [9], 20%; with Annual bluegrass [10], 0%; in the assay on Yellow nutsedge [11], 30%; in the assay with Velvetleaf [12], 100%. Also, the inhibition at 11210 g/ha in the assay on Seedling johnsongrass [13] was found to be 100%; in the assay on Wild buckwheat [14], 100%; with Barnyardgrass [15], 100%; in the assay on Cocklebur [16], 40%; in the assay with Indian Mustard [17], 80%; with Morningglory [18], 100%. The inhibition at 11210 g/ha with Downy Brome [19] was determined as 100%; in the assay with Annual bluegrass [20] it was 60%.
On to `Cn1nc(-c2cc(O)c(Br)cc2F)c(Cl)c1C(F)(F)F` [Compound 95], for which the inhibition at 1120 g/ha in the assay with Yellow nutsedge [1] was found to be 10%; with Velvetleaf [2] it was 100%; with Seedling johnsongrass [3], 50%; with Wild buckwheat [4], 100%; in the assay with Barnyardgrass [5], 80%; in the assay on Cocklebur [6] it was 100%. Further, the inhibition at 1120 g/ha with Indian Mustard [7] came to 70%; in the assay on Morningglory [8], 80%; in the assay on Downy Brome [9], 40%; in the assay on Annual bluegrass [10] it was 60%; in the assay with Yellow nutsedge [11], 20%; in the assay on Velvetleaf [12], 90%. Also, the inhibition at 1120 g/ha with Seedling johnsongrass [13] is 50%; in the assay with Wild buckwheat [14], 100%; in the assay with Barnyardgrass [15], 50%; with Cocklebur [16], 20%; in the assay on Indian Mustard [17] it was 80%; in the assay on Morningglory [18], 40%. In addition, the inhibition at 1120 g/ha in the assay on Downy Brome [19] was 20%; with Annual bluegrass [20] it was 30%.
With `Cn1nc(C(F)(F)Cl)c(Cl)c1-c1ccc(Cl)cc1` [Compound 67], the inhibition at 11210 g/ha in the assay with Yellow nutsedge [1] was 20%; with Velvetleaf [2], 80%; in the assay with Seedling johnsongrass [3], 80%; with Wild buckwheat [4], 100%; in the assay on Barnyardgrass [5] it was 40%; with Cocklebur [6], 20%. In addition, the inhibition at 11210 g/ha was determined as 40% in the assay on Indian Mustard [7]; 70% in the assay on Morningglory [8]; 40% with Downy Brome [9]; 20% with Annual bluegrass [10]; 0% with Yellow nutsedge [11]; 80% in the assay with Velvetleaf [12]. Moreover, the inhibition at 11210 g/ha is 40% in the assay with Seedling johnsongrass [13]; 90% in the assay on Wild buckwheat [14]; 0% in the assay with Barnyardgrass [15]; 0% with Cocklebur [16]; 50% in the assay on Indian Mustard [17]; 90% with Morningglory [18]. Moreover, the inhibition at 11210 g/ha with Downy Brome [19] and in the assay with Annual bluegrass [20] was 40% each time.
For `Cn1nc(-c2ccc(Cl)cc2)c(Cl)c1C(F)(F)Cl` [Compound 83], the inhibition at 11210 g/ha in the assay with Yellow nutsedge [1] amounted to 20%; in the assay on Velvetleaf [2], 100%; in the assay on Seedling johnsongrass [3], 60%; in the assay with Wild buckwheat [4], 100%; with Barnyardgrass [5], 40%; in the assay on Cocklebur [6] it was 70%. For the same compound, the inhibition at 11210 g/ha with Indian Mustard [7] is 90%; with Morningglory [8], 80%; in the assay on Downy Brome [9], 40%; in the assay on Annual bluegrass [10] it was 0%; with Yellow nutsedge [11], 20%; in the assay on Velvetleaf [12], 90%. Also, the inhibition at 11210 g/ha with Seedling johnsongrass [13] was found to be 100%; with Wild buckwheat [14], 90%; in the assay with Barnyardgrass [15], 60%; in the assay on Cocklebur [16], 40%; with Indian Mustard [17], 60%; in the assay with Morningglory [18] it was 30%. The values for the inhibition at 11210 g/ha in the assay with Downy Brome [19] and with Annual bluegrass [20] were 90% and 40%, respectively.
